Experimental data as given in US5804576A, “Derivatives of 5-androsten-17-ones and 5-androstan-17-ones” (Research Corporation Technologies, Inc., priority 1986, dated 1998).

Assays:
[1] = system: rat uterus; mouse seminal vesicle plus prostate; experiment: Sex steroid hormonal or anti-hormonal activity (estrogenic, anti-estrogenic, androgenic, anti-androgenic); conditions: in vivo
Method: Female CD rats, 26-27 days old, were injected subcutaneously for 3 days with one of the compounds of the present invention at 60 mg/kg in propylene glycol. Controls received propylene glycol alone. On the 4th day the rats were killed and the uteri were dissected out and weighed. The results are given below:
(§1) (a) Male A/J mice (5 weeks old) were obtained from the Jackson Laboratory and were housed in polycarbonate cages (5 mice/cage) in animal quarters maintained at 24°[…] C. with 12 hours of light and 12 hours of darkness each day. One week after arrival, the mice were placed on a chow diet containing one of the test compounds of the present invention at 0.36%. After 4 weeks of treatment, the above mice were killed, and the seminal vesicles and prostate glands were dissected out and weighed.

rat uterus [2] = experiment: Estrogenic and anti-estrogenic activity (uterine weight, s.c., CD rats); type: in vivo, rat (female CD); conditions: for Mean Uterine Weight ± S.D.: 60 mg/kg s.c., 3 days, Tables 16 and 17
Method: Female CD rats, 26-27 days old, were used. Rats were injected subcutaneously for 3 days with either DHEA or 16 in propylene glycol. Control rats received propylene glycol alone. The rats were killed on the 4th day and the uteri were removed and weighed.
Female CD rats, 26-27 days old, were injected subcutaneously for 3 days with one of the compounds of the present invention at 60 mg/kg in propylene glycol. Controls received propylene glycol alone. On the 4th day the rats were killed and the uteri were dissected out and weighed.

[3] = Anti-obesity test (body weight, food consumption); type: in vivo, mouse (male A/J); conditions: for anti-weight effect (in words): 400 mg/kg repeated (DHEA), cancer preventive dosages (19, 20); for weekly weight (Table 13): 0.54% in food; for mean weekly weight ± S.D.: 0.36% of diet, n = 5
Method: Male A/J mice (5 weeks old) were obtained from the Jackson Laboratory and were housed in polycarbonate cages (5 mice/cage) in animal quarters maintained at 24°±1° C. with 12 hours of light and 12 hours of darkness each day. One week after arrival, the mice were placed on a chow diet containing varying concentrations of DHEA or other steroid. Animals were weighed weekly; food consumption was determined weekly by subtracting the amount of food remaining in the cage from the amount added.
Male A/J (5 weeks old) were obtained from the Jackson Laboratory and were housed in polycarbonate cages (5 mice/cage) in animal quarters maintained at 24°±1° C. with 12 hours of light and 12 hours of darkness each day. One week after arrival, the mice were placed on a diet containing either DHEA, 19, or without steroid. Animals were weighed weekly. The concentration of DHEA or 19 used in the food was 0.54%.
Male A/J mice (5 weeks old) were obtained from the Jackson Laboratory and were housed in polycarbonate cages (5 mice/cage) in animal quarters maintained at 24°±1° C. with 12 hours of light and 12 hours of darkness each day. One week after arrival, the mice were placed on a show diet containing DHEA, 16, or 21 at 0.36%. Animals were weighed weekly.

[4] = system: [3H]DMBA binding to skin DNA; experiment: [3H]DMBA binding to skin DNA, oral steroid; type: in vivo, mouse (male A/J); conditions: 12 hours
Method: (§2) Male A/J mice were orally intubated with steroid suspended in sesame oil (0.5 ml/mouse) at the indicated dose. Mice not receiving steroid were given sesame oil alone. Food restricted mice received approximately 60% of food of Ad libitum fed for two weeks. One hour after oral intubation, topical [^3 H]DMBA was applied to the skin, and the amount bound to DNA was determined 12 hours later as described in Table 4.
as §2, with “alone.” for “alone. Food restricted mice received approximately 60% of food of Ad libitum fed for two weeks.”

[5] = system: seminal vesicles plus prostate glands; experiment: Androgenic and anti-androgenic activity (seminal vesicle plus prostate weight); type: in vivo, mouse (male A/J)
Method: Male A/J mice (5 weeks old) were obtained from the Jackson Laboratory and were housed in polycarbonate cages (5 mice/cage) in animal quarters maintained at 24°±1° C. with 12 hours of light and 12 hours of darkness each day. One week after arrival, mice were placed on a chow diet containing either 0.18% or 0.09% 16 or without steroid. Mice were weighed weekly. After 4 weeks, the mice were killed, and the seminal vesicles plus prostate glands were dissected out and weighed.
as §1

[6] = system: TPA (Tumor Promoter) Stimulation of Mouse Epidermal DNA; experiment: Inhibition of TPA stimulation of mouse epidermal DNA synthesis (3H-thymidine incorporation), oral; type: in vivo, mouse (ICR male); conditions: oral, single administration
Source text: Synthesis rate by orally administered steroids.
The inhibition of tumor promoter stimulation of mouse epidermal DNA synthesis rate by steroids may also contribute to cancer preventive activity. The following assay is used:
ICR male mice (7-9 weeks old) were shaved on the back 1-2 days before use. Only mice showing no hair regrowth were used. Animals were orally intubated with a particular steroid suspended by homogenization in sesame oil or with sesame oil alone (controls). One hour later TPA (10 μg in 0.2 ml of acetone) or acetone vehicle was applied topically to the shaved skin. Twenty hours later, mice were injected i.p. with 60 μCi of ^3 H-thymidine 20 minutes before sacrifice. The animals were killed by cervical dislocation and the residual hair was removed with a depilatory agent. Epidermal scrapings were prepared according to the procedures of Hennings et al. (Cancer Res. 28, 53, 1968), homogenized in distilled water at 4° C., and the macromolecules precipitated with 0.4N trichloroacetic acid (TCA). Following 6 washes with absolute ethanol at room temperature, the nucleic acids were hydrolyzed with 0.5N TCA at 70° C. for 5 minutes. The hydrolysate (0.2 ml aliquots) were counted in an Intertechnique scintillation counter and assayed for DNA by the diphenylamine reaction.
The data are expressed as counts per minute (cpm) of tritium per μg of DNA.
A similar oral dose-response experiment with compound 16 and DHEA was performed.
(§3) Both of the above tests, i.e., the inhibition of mammalian glucose-6-phosphate dehydrogenase (G6PDH) and the inhibition of tumor promoter (TPA) stimulation of ^3 H-thymidine incorporation in mouse epidermis are recognized as indicators of cancer prophylactic activity. The following Table compares the efficacy of representative compounds of the present invention in these two tests with that of DHEA:
(§4) Male ICR mice were orally intubated with steroid suspended in sesame oil (0.5 ml/mouse) at the indicated dose. Mice not receiving steroid were given sesame oil alone. One hour later mice received topical application of TPA and 20 hours later the rate of ^3 H-thymidine incorporation into the epidermis was determined as described in Table 4.
as §4, with “TPA,” for “TPA”

[7] = biological target: T1, purified bovine adrenal G6PDH (Bos taurus, UniProt F1MMK2); experiment: Inhibition of purified bovine adrenal G6PDH; type: biochemical; conditions: for inhibition at 1 µM: Conc. 1 μm; for inhibition at 1 µM / inhibition at 10 µM: read-out: Percent Inhibition (G6PDH); for inhibition at 10 µM: Conc. 10 μm
T1 construct: full-length, wild type, no tag
Source text: The compounds listed below are screened as inhibitors of purified bovine adrenal G6PDH activity as one predictor of cancer preventive action. The assay for testing the inhibition of purified bovine adrenal G6PDH is according to the procedure by Oertel, G. W. and Rebelein, I. in Biochem. Biophys. Acta, 184, 459-460 (1969). The results are given below in Table I:
as §3, with “DHEA: […]” for “DHEA:”

[8] = system: seminal vesicles plus prostate glands; experiment: Androgenic and anti-androgenic activity (seminal vesicle plus prostate weight); type: in vivo, mouse (male A/J); conditions: con't. experiment; five weeks; DHEA 0.54%; n = 5
rat uterus [9] = experiment: Uterotrophic test for estrogenic activity, oral; type: in vivo; conditions: 14 μg/kg oral; 3 days; n = 6
Source text: Uterotrophic Test for Estrogenic Activity. Compound 16 vs. DHEA and Estradiol-benzoate. Compounds Given by Oral Administration.
Twenty-two day old rats were obtained from Charles River Laboratories. Animals were used at 29 days of age. Test steroids were suspended by homogenization in sesame oil. Rats were orally intubated at 1-2 P.M. for 3 days with a test steroid in sesame oil or with sesame oil alone (control). On the 4th day the animals were killed and the uteri were removed and weighed.

[10] = system: (3H) DMBA binding to skin DNA; experiment: [3H]DMBA binding to mouse skin DNA, topical steroid; type: in vivo, mouse (A/J); conditions: topical; A/J mouse
Source text: Skin tumors can be induced in the mouse either by weekly application of a carcinogen such as […] (DMBA), or alternatively,by a single sub-threshold dose of the carcinogen followed by twice weekly applications of the tumor promoter tetradecanoylphorbol-13-acetate (TPA). In order to exert its carcinogenic effect, DMBA must be metabolized by an NADPH-dependent mixed-function oxidase to chemically reactive intermediates which bind covalently to DNA and produce mutations leading to malignant transformation. […] This effect of DHEA very probably is a result of the inhibition of G6PDH and lowering of the intracellular pool of NADPH, which is a co-factor for the mixed-function oxidase activation of DMBA.
Binding of [^3 H]DMBA to mouse skin DNA was determined as described in Pashko, L. L., and Schwartz, A. G. (1983), Effect of food restriction, dehydroepiandrosterone, or obesity on the binding of ^3 H-7,12-dimethylbenz(a)-anthracene to mouse skin DNA, J. Gerontol., 38, 8-12. Values are mean±SD for 3 individual determinations, with pooled tissue from 2 mice used for each determination. DHEA or testosterone (400 ug in 0.2 ml acetone) was applied to the skin one hour before [^3 H]DMBA. The mean weight of the food restricted mice was 18.5±1.0 gm, n=6, of the ad libitum fed, 27.4±1.0 gm, n=6, of the ad libitum fed treated with DHEA, 28.2±0.9 gm, n=6, and of the ad libitum fed treated with testosterone, 28.3±0.9 gm, n=6, following two weeks of feeding. The average food consumed was, in gm/mouse/day, 2.2, 3.8, 3.8 and 4.0 for the food restricted, ad libitum fed, ad libitum fed plus DHEA, and ad libitum fed plus testosterone groups, respectively.

T1 sequence (F1MMK2 31-70): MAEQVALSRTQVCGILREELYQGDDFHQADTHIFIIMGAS
T1 sequence (F1MMK2 101-575): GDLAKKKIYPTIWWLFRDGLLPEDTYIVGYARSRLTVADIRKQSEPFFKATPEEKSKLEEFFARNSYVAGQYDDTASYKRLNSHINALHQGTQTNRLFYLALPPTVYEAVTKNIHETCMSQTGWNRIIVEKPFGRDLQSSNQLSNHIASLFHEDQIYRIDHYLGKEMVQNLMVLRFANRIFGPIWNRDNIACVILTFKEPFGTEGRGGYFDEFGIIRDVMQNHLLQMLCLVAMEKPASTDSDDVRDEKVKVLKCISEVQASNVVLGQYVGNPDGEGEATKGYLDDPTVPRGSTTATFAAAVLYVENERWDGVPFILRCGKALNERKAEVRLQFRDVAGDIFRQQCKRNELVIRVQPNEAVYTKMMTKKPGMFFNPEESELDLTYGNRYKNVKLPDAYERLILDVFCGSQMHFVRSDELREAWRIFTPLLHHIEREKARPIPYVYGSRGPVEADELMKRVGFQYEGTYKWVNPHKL

SMILES: C[C@]12CCC(Cl)CC1=CC[C@@H]1[C@@H]2CC[C@]2(C)C(=O)CC[C@@H]12 (stereo partly drawn) [3 chloro-5-androstene-17-one]
- estrogenic, anti-estrogenic, androgenic, anti-androgenic activity (in words) [1]: without any demonstrable estrogenic, androgenic, anti-androgenic or anti-estrogenic activity

SMILES: C[C@H]1CC[C@@]2(C)C(=CC[C@@H]3[C@@H]2CC[C@]2(C)C(=O)[C@H](O)C[C@@H]32)C1 [Compound 19]
- Mean Uterine Weight ± S.D. (rat uterus [2]): 2.16 ± 0.5 mg/100 gm body weight
- estrogenic / anti-estrogenic effect, uterine weight (in words) (rat uterus [2]; s.c., 60 mg/kg or higher, female CD rats): no apparent estrogenic nor anti-estrogenic activity
- anti-weight effect (in words) [3]: do not produce an anti-weight effect
- weekly weight (Table 13) ([3]; week 0): 21.1 ± 0.8
- weekly weight (Table 13) ([3]; week 1): 19.1 ± 0.9
- weekly weight (Table 13) ([3]; week 2): 18.4 ± 1.0
- weekly weight (Table 13) ([3]; week 3): 18.7 ± 1.4
- weekly weight (Table 13) ([3]; week 4): 19.7 ± 1.1
- weekly weight (Table 13) ([3]; week 5): 20.6 ± 0.4
- SPECIFIC ACTIVITY ([3H]DMBA bound to skin DNA) ([4]; 400 mg/kg p.o.): 20.4 ± 1.1 cpm/ug DNA
- estrogenic, anti-estrogenic, androgenic, anti-androgenic activity (in words) [1]: neither estrogenic, anti-estrogenic, androgenic, nor anti-androgenic activity
- androgenic / anti-androgenic effect, seminal vesicle plus prostate weight (in words) ([5]; diet, male A/J mice): no significant effect on seminal vesicle plus prostate gland weight
- TPA stimulation in 3H-thymidine incorporation (in words) [6]: to a degree comparable to that produced by food restriction at doses well below 400 mg/kg
- G6PDH inhibition compared with DHEA (in words) [7]: more effective inhibitorsof G6PDH than is DHEA
- inhibition at 1 µM [7]: 29%
- inhibition at 10 µM [7]: 64%
- Mean Seminal Vesicle plus Prostate Weight ± S.D. [8]: 6.45 ± 0.65 mg/100 gm body weight

SMILES: C[C@H]1CC[C@@]2(C)C(=CC[C@@H]3[C@@H]2CC[C@]2(C)C(=O)[C@H](F)C[C@@H]32)C1 [Compound 20]
- anti-weight effect (in words) [3]: do not produce an anti-weight effect
- SPECIFIC ACTIVITY ([3H]DMBA bound to skin DNA) ([4]; 100 mg/kg p.o.): 48.4 ± 2.6 cpm/ug DNA
- SPECIFIC ACTIVITY ([3H]DMBA bound to skin DNA) ([4]; 200 mg/kg p.o.): 43.7 ± 1.5 cpm/ug DNA
- TPA stimulation in 3H-thymidine incorporation (in words) [6]: to a degree comparable to that produced by food restriction at doses well below 400 mg/kg
- inhibition at 1 µM [7]: 55%
- inhibition at 10 µM [7]: 46%

SMILES: C[C@H]1CC[C@@]2(C)C(=CC[C@@H]3[C@@H]2CC[C@]2(C)C(=O)[C@H](C)C[C@@H]32)C1 [Compound 21]
- Mean Uterine Weight ± S.D. (rat uterus [2]): 1.76 ± 0.21 mg/100 gm body weight
- mean weekly weight ± S.D. ([3]; week 0): 22.7 ± 1.9 grams
- mean weekly weight ± S.D. ([3]; week 1): 20.1 ± 2.1 grams
- mean weekly weight ± S.D. ([3]; week 2): 19.9 ± 2.3 grams
- mean weekly weight ± S.D. ([3]; week 3): 22.2 ± 2.3 grams
- estrogenic, anti-estrogenic, androgenic, anti-androgenic activity (in words) [1]: neither estrogenic, anti-estrogenic, androgenic, nor anti-androgenic activity
- Mean Seminal Vesicle plus Prostate Weight ± S.D. ([5]; 0.36% of diet, 4 weeks, n = 5): 5.1 ± 1.4 mg/100 gm body weight
- G6PDH inhibition compared with DHEA (in words) [7]: more effective inhibitorsof G6PDH than is DHEA
- inhibition at 1 µM [7]: 36%
- inhibition at 10 µM [7]: 48%

SMILES: C[C@]12CC[C@@H]3c4ccc(OC(=O)c5ccccc5)cc4CC[C@H]3[C@@H]1CC[C@@H]2O [Estradiol-benzoate, reference compound]
- Mean Uterine Weight (rat uterus [9]): 244 ± 44 Mgs

SMILES: C[C@]12CC[C@H]3[C@@H](CCC4=CC(=O)CC[C@@]43C)[C@@H]1CC[C@@H]2O [testosterone]
- rate of binding of topically applied 3H-DMBA to skin DNA (in words) [10]: without inhibitory effect
